According to patent US20100010053A1, “COMPOUNDS” (priority 2008, published 2010):

Biological target: T1, human S1P3 receptor (EDG3) (Homo sapiens, UniProt Q99500)
T1 construct: expressed in transfected cells; host or cells: rat basophilic leukaemia cells RBL-2H3 (membranes, GTPγS assay) or GeneBLAzer EDG3-Ga15-NFAT-bla HEK 293T cells
Experiment: S1P3 GTPγS assay or S1P3 GeneBlazer assay (at least one of the above assays)
Assay type: cell-based
Conditions: given as EC50
Method: S1P3 membranes from rat basophilic leukaemia cells (RBL-2H3) (1.5 μg/well) were adhered to WGA-coated SPA beads (0.125 mg/well) in assay buffer (HEPES 20 mM, MgCl2 3 mM, NaCl 100 mM and pH adjusted to 7.4 using KOH 5M), GDP 10 μM FAC and saponin 90 μg/ml FAC was also added).
(§1) After 30 minutes pre-coupling on ice the bead and membrane suspension was dispensed into a white Greiner polypropylene LV384-well plate (5 μl/well), containing 0.1 μl of the compound. 5 μl/well [^35S]-GTPγS (0.5 nM final radioligand conc) made up in assay buffer was then added to agonist plates. The final assay cocktail (10.1 μl) was centrifuged at 1000 rpm for 5 minutes then read immediately on a Viewlux reader.
All test compounds were dissolved in DMSO at a concentration of 10 mM and were prepared in 100% DMSO using a 1 in 4 dilution step to provide 11 point dose response curves. The dilutions were transferred to the assay plates ensuring that the DMSO concentration was constant across the plate for all assays. […]
After incubation at 37° C., 5% CO2 for 5 h, 25 μl of 6× substrate mixture (6 μl Solution A (1 mg LiveBLAzer™-FRET B/G Substrate (CCF4-AM) in 912 μl DMSO) plus 60 μl Solution B plus 934 μl Solution C) was added to each well and incubate at room temperature for 2 h in dark. The plate was finally read on EnVision for two emission channels (460 nm and 530 nm). […]

T1 sequence (Q99500 whole entry): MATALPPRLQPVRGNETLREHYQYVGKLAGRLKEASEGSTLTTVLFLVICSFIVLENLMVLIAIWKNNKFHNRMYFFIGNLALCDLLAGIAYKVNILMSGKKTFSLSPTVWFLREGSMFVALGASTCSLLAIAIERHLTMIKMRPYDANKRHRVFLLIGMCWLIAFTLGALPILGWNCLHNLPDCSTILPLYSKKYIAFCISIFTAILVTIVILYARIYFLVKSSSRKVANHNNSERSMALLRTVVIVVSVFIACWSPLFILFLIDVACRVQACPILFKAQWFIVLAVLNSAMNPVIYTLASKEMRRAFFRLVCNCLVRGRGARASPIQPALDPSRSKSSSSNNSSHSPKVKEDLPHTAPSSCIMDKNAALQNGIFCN

| Structure (SMILES) | EC50 [nM] |
| --- | --- |
| CC(C)Oc1ccc(-c2nc(-c3cccc4c([C@H]5C[C@H]5C(=O)O)cn(C)c34)no2)cc1Cl (relative stereo) [Example 40, cis-2-[7-(5-{3-chloro-4-[(1-methylethyl)oxy]phenyl}-1,2,4-oxadiazol-3-yl)-1-methyl-1H-indol-3-yl]cyclopropanecarboxylic acid] | 316 |

Tested on: circulating lymphocytes
Experiment: not given
Conditions: animals and man; cited from earlier work

| Structure (SMILES) | effect on circulating lymphocytes |
| --- | --- |
| CCCCCCCCc1ccc(CCC(N)(CO)CO)cc1 [FTY720] | reduce circulating lymphocytes |

Biological target: T2, human S1P1 receptor (EDG1) (Homo sapiens, UniProt P21453)
T2 construct: TEV protease site + Gal4-VP16 transcription factor (only in the Tango assay cells; not described for the GTPγS membranes); expressed in transfected cells; host or cells: rat hepatoma cells (membranes, GTPγS assay) or Tango EDG1-bla U2OS cells (Tango assay)
Experiment: S1P1 GTPγS assay or S1P1 Tango assay (at least one of the above assays)
Assay type: cell-based
Conditions: read-out: pEC50 in at least one of the above assays (converted)
Method: For membrane preparations all steps were performed at 4° C. Rat hepatoma cells stably expressing the human S1P1 receptor or Rat Basophilic Leukaemia cells (RBL) stably expressing human S1P3 receptor were grown to 80% confluency before being harvested into 10 ml Phospho-Buffered Saline (PBS) and centrifuged at 1200 rpm for 5 minutes. After removal of the supernatant, the pellet was re-suspended and cells were homogenised within a glass Waring blender for 2 bursts of 15 secs in 200 mls of buffer (50 mM HEPES, 1 mM leupeptin, 25 μg/ml bacitracin, 1 mM EDTA, 1 mM PMSF, 2 μM pepstatin A). The blender was plunged into ice for 5 mins after the first burst and 10-40 mins after the final burst to allow foam to dissipate. The material was then spun at 500 g for 20 mins and the supernatant spun for 36 mins at 48,000 g. The pellet was resuspended in the same buffer as above but without PMSF and pepstatin A. The material was then forced through a 0.6 mm needle, made up to the required volume, (usually ×4 the volume of the original cell pellet), aliquoted and stored frozen at −80° C. S1P1 GTPγS assay Human S1P1 rat hepatoma membranes (1.5 μg/well) were adhered to a wheatgerm agglutinin (WGA)-coated scintillation proximity assay (SPA) beads (0.125 mg/well) in assay buffer (HEPES 20 mM, MgCl2 10 mM, NaCl 100 mM and pH adjusted to 7.4 using KOH 5M, GDP 10 μM FAC (final assay concentration) and saponin 90 μg/ml FAC was also added).
as §1, with “μl) was then centrifuged at” for “μl) was centrifuged at”
All test compounds were dissolved in DMSO at a concentration of 10 mM and were prepared in 100% DMSO using a 1 in 4 dilution step to provide 11 point dose response curves. The dilutions were transferred to the assay plates ensuring that the DMSO concentration was constant across the plate for all assays.
All data was normalized to the mean of 16 high and 16 low control wells on each plate. A four parameter curve fit was then applied.
Recombinant EDG1-bla/U2OS cells (contain the human Endothelial Differentiation Gene 1 (EDG1) linked to a TEV protease site and a Gal4-VP16 transcription factor stably integrated into the Tango GPCR-bla U2OS parental cell line) were suspended in assay medium (Invitrogen Freestyle Expression Medium) at a density of 312, 500 cells/ml. Add 100 μl/well of the assay medium to the cell-free control wells (column 12) and 100 μl/well of the cell suspension to the test compound wells (row 2-8, column 1-10), the unstimulated control wells (DMSO) (column 11), and stimulated control wells (S1P) (row 1, column 1-10) in a Corning black-well, clear bottom 96-well plate. Cells were incubated at 37° C., 5% CO2 for 44-48 h. Add 25 μl of 5× stock solution of test compounds in assay medium with 0.5% DMSO to the test compound wells, 25 μl of 5× stock solution of agonist (S1P) in assay medium with 0.5% DMSO to the stimulated compound wells, and 25 μl of 5× stock solution of 0.5% DMSO in assay medium to the unstimulated control and cell-free control wells.
After incubation at 37° C., 5% CO2 for 5 h, 25 μl of 6× substrate mixture (6 μl Solution A (1 mg LiveBLAzer™-FRET B/G substrate (CCF4-AM) in 912 μl DMSO) plus 60 μl Solution B plus 934 μl Solution C) was added to each well and incubate at room temperature for 2 h in dark. The plate was finally read on EnVision for two emission channels (460 nm and 530 nm).
All test compounds were dissolved in DMSO at a concentration of 10 mM and were prepared in 100% DMSO using a 1 in 5 dilution step to provide 10 point dose response curves. […]

T2 sequence (P21453 whole entry, the tested form may be a part): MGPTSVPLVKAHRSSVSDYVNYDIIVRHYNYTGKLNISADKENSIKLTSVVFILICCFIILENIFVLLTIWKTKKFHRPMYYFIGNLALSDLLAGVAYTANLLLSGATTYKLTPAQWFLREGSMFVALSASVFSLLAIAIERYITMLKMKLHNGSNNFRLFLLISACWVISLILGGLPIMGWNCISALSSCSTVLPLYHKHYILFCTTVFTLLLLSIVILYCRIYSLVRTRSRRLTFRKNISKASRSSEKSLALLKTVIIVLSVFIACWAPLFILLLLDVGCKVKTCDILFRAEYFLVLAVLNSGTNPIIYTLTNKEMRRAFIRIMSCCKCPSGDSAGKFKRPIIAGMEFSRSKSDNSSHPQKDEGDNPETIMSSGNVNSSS

| Structure (SMILES) | EC50 [nM] |
| --- | --- |
| CC(C)Cn1cc(CCC(=O)O)c2cccc(-c3noc(-c4ccc(OC(C)C)c(Cl)c4)n3)c21 [Example 30, 3-[7-(5-{3-chloro-4-[(1-methylethyl)oxy]phenyl}-1,2,4-oxadiazol-3-yl)-1-(2-methylpropyl)-1H-indol-3-yl]propanoic acid] | ≥ 1000 |
| CC(C)Oc1ccc(-c2nc(-c3c(F)ccc4c(CCC(=O)O)c[nH]c34)no2)cc1C#N [Example 105, 3-[7-(5-{3-Cyano-4-[(1-methylethyl)oxy]phenyl}-1,2,4-oxadiazol-3-yl)-6-fluoro-1H-indol-3-yl]propanoic acid] | < 1 |
| CC(C)Oc1ccc(-c2nc(-c3ccc(F)c4c(CCC(=O)O)cn(C)c34)no2)cc1Cl [Example 20, 3-[7-(5-{3-Chloro-4-[(1-methylethyl)oxy]phenyl}-1,2,4-oxadiazol-3-yl)-4-fluoro-1-methyl-1H-indol-3-yl]propanoic acid] | < 10 |
| CC(C)Oc1ccc(-c2nc(-c3cccc4c(C(=O)NCCCC(=O)O)c[nH]c34)no2)cc1Cl [Example 74, 4-({[7-(5-{3-chloro-4-[(1-methylethyl)oxy]phenyl}-1,2,4-oxadiazol-3-yl)-1H-indol-3-yl]carbonyl}amino)butanoic acid] | < 1 |
| CC(C)Oc1ccc(-c2nc(-c3c(F)ccc4c(CCC(=O)O)c[nH]c34)no2)cc1Cl [Example 103, 3-[7-(5-{3-Chloro-4-[(1-methylethyl)oxy]phenyl}-1,2,4-oxadiazol-3-yl)-6-fluoro-1H-indol-3-yl]propanoic acid] | < 1 |
| CC(C)Oc1ccc(-c2nc(-c3cccc4c(CCN5CC(C(=O)O)C5)cn(C)c34)no2)cc1Cl [Example 67, 1-{2-[7-(5-{3-chloro-4-[(1-methylethyl)oxy]phenyl}-1,2,4-oxadiazol-3-yl)-1-methyl-1H-indol-3-yl]ethyl}-3-azetidinecarboxylic acid] | < 10 |
| CC(C)Oc1ccc(-c2nc(-c3cccc4c(CCC(=O)O)cn(C)c34)no2)cc1Cl [Example 2, 3-[7-(5-{3-Chloro-4-[(1-methylethyl)oxy]phenyl}-1,2,4-oxadiazol-3-yl)-1-methyl-1H-indol-3-yl]propanoic acid] | < 10 |
| CC(C)Oc1ncc(-c2nc(-c3ccc4c(CN5CCC(C(=O)O)CC5)c[nH]c4c3)no2)cc1Cl [Example 78, 1-{[6-(5-{5-chloro-6-[(1-methylethyl)oxy]-3-pyridinyl}-1,2,4-oxadiazol-3-yl)-1H-indol-3-yl]methyl}-4-piperidinecarboxylic acid] | ≥ 1000 |
| CC(C)Oc1ncc(-c2nc(-c3cc(F)cc4c(CCC(=O)O)cn(C)c34)no2)cc1Cl [Example 102, 3-[7-(5-{5-Chloro-6-[(1-methylethyl)oxy]-3-pyridinyl}-1,2,4-oxadiazol-3-yl)-5-fluoro-1-methyl-1H-indol-3-yl]propanoic acid] | < 1 |
| CC(C)Oc1ccc(-c2nc(-c3cccc4c(CCOCC(=O)O)cn(C)c34)no2)cc1Cl [Example 79, ({2-[7-(5-{3-chloro-4-[(1-methylethyl)oxy]phenyl}-1,2,4-oxadiazol-3-yl)-1-methyl-1H-indol-3-yl]ethyl}oxy)acetic acid] | < 10 |
| CC(C)Oc1ccc(-c2nc(-c3ccc(F)c4c(CCC(=O)O)c[nH]c34)no2)cc1C#N [Example 21, 3-[7-(5-{3-Cyano-4-[(1-methylethyl)oxy]phenyl}-1,2,4-oxadiazol-3-yl)-4-fluoro-1H-indol-3-yl]propanoic acid] | < 10 |
| CC(C)Oc1ccc(-c2nc(-c3cccc4c(CCC(=O)O)c[nH]c34)no2)cc1Cl [Example 1, 3-[7-(5-{3-chloro-4-[(1-methylethyl)oxy]phenyl}-1,2,4-oxadiazol-3-yl)-1H-indol-3-yl]propanoic acid] | < 10 |

Tested on: not given
Experiment: not given
Conditions: clinical studies, first 24 hours of treatment; cited from earlier work

| Structure (SMILES) | bradycardia |
| --- | --- |
| CCCCCCCCc1ccc(CCC(N)(CO)CO)cc1 [FTY720] | results in bradycardia |
